Results reported in patent US12303594B2, “Antimicrobial and anti-inflammatory compositions” (The Texas A&M University System, priority 2015, dated 2025).

Legend:
PA01 [1] = experiment: Endpoint CFU counting; details: 6 hours in MH, free ibuprofen
Procedure: (§2) Various gram-negative bacterial strains (Pseudomonas aeruginosa, PA01: Burkholderia multivorans, BM; and an Escherichia coli strain. EC J53+pmg101) were cultured in Mueller Hinton (MH) broth to a density of 5*10^5 colony forming units (CFU)/ml as verified by serial dilution and growth of colonies on tryptic soy agar (TSA) plates. […] Endpoint CFU counting was also performed on PA01 and a Staphylococcus aureus vancomycin-intermediate (VISA) strain (Mu50).

[2] = Brunauer-Emmett-Teller specific surface area; assay type: physicochemical
Procedure: Brunauer-Emmett-Teller: Surface area (SA) was evaluated via a single-point BET method using a Monosorb® surface area analyzer (Quantrachrome Instruments; FL, USA) following 24 hour outgassing with helium at room temperature (RT) before each measurement in triplicate on a known powder mass (m). SSA was calculated using Equation 3: […]
Brunauer-Emmett-Teller (BET) specific surface area (SSA) measurements were taken. Surface area (SA) was evaluated via a single-point BET method using a Monosorb® surface area analyzer (Quantrachrome Instruments; FL, USA) following 24 hour outgassing with helium at room temperature before each measurement in triplicates. Samples masses (m) were at least 50 mg for the jet-milled powders depending on availability and 500 mg for the unprocessed samples. SSA was calculated according to the following formula: […]

[3] = test system: Staphylococcus aureus vancomycin-intermediate (VISA) strain (Mu50); experiment: Endpoint CFU counting; details: 6 hours in MH, free ibuprofen
Procedure: as §2

[4] = test system: Pseudomonas aeruginosa (strain PA HP3); experiment: Minimum inhibitory concentration (MIC); assay type: cell-based; details: alone
Procedure: (§1) The final concentrations of aztreonam, ceftazidime and vancomycin were 0.06, 0.13, 0.25, 0.5, 1, 2, 4, 8, 16, 32, 64, and 128 μg/ml. The plates were incubated overnight at 37° C. […] Each triplicate was performed at least twice.

[5] = test system: methicillin-resistant Staphylococcus aureus (strain MRSA 0646); experiment: Minimum inhibitory concentration (MIC); assay type: cell-based; details: alone, read-out: MIC
Procedure: as §1

[6] = test system: Burkholderia multivorans, BM; experiment: In vitro bacterial growth study (OD600); details: 10 μg/mL or 1 μg/mL ibuprofen solution added 1:1 (v:v)
Procedure: as §2

PA01 [7] = experiment: Mouse model of acute P. aeruginosa pneumonia (bacterial burden, weight, clinical scores); assay type: in vivo, mice
[8] = Helium pycnometry true density; assay type: physicochemical; details: N = 3
Procedure: Helium pycnometry: True densities were measured using an MVP-D160-E multipycnometer (Quantrachrome Instruments; FL, USA) equipped with the micro cell and adapter. Measurements were conducted in triplicates. Before pressure measurements, the multipycnometer was purged with helium gas according to the manufacturer's recommendations.
True densities were measured using a MVP-D160-E multipycnometer (Quantrachrome Instruments; FL, USA). For density measurements, the micro cell and the micro cell adapter were used, and samples weighed at least 0.1 g for the jet-milled powders depending on availability and at least 0.6 g for the unprocessed powders.

[9] = Angle of repose (USP method); assay type: physicochemical; details: N = 3
Procedure: Angle of repose: Angles of repose were measured in triplicate according to the United States Pharmacopoeia (USP) method. Images of the powder mounds were taken using a digital camera and were analyzed using the ImageJ software (Wayne Rasband, Research Services Branch, National Institute of Mental Health, Bethesda, MD, USA). […]

SA 25-05 = experiment: Endpoint time-kill synergy study; details: ibuprofen with sub-MIC antimicrobial vs antimicrobial alone, 6 hours
Procedure: Afterwards, the inoculums were plated to determine their CFU/ml. Synergy from the combination was determined by a ≥2×log10 decrease in CFU/ml when compared to antimicrobial treatment alone.

[10] = test system: Pseudomonas aeruginosa, PA01; experiment: In vitro bacterial growth study (OD600); details: 10 μg/mL or 1 μg/mL ibuprofen solution added 1:1 (v:v)
Procedure: as §2

[11] = 0.75 mg in syrup by mouth every 8 hours, 36 hours post-infection, vs syrup only

## CC(C)Cc1ccc(C(C)C(=O)O)cc1 (centres unmarked) [ibuprofen, 2(4-isobutylphenyl)propanoic acid]
PA01 [1]
  CFU: Significant reduction in CFU
[2]
  surface area: 0.357±0.005 m^2/g
[2]; N = 3
  SSA: 0.36 ± 0.01 m^2/g
[3]
  CFU: Significant reduction in CFU
[4]
  MIC: > 128 mg/L
[5]
  MIC: > 128 mg/L
[6]
  bacterial growth (OD600): slowed and/or delayed the growth
PA01 [7]; [11]
  lung bacterial burden (CFU counts): Significant reductions
  spleen bacterial burden (CFU counts): Significant reductions
PA01 [7]; 36 hour study
  weight loss after infection: no significant effect
[8]
  ρ (true density): 1.14 ± 0.00 g/mL
[9]
  Angle of Repose: 62.6 ± 2.9 º
SA 25-05
  killing efficacy of ceftazidime and gentamicin (CFU/ml): significantly increased the killing efficacy of both ceftazidime and gentamicin
[10]
  bacterial growth (OD600): slowed and/or delayed the growth
